# According to patent US12435062B2, “Amide compounds and uses thereof” (HUTCHISON MEDIPHARMA LIMITED, priority 2020, dated 2025):
# Assays:
# Ba/F3^BCR-FMS-11 cells = test: Cell proliferation experiment (Ba/F3^BCR-FMS-11, cckit-8); format: cell-based, mouse; conditions: Mus musculus, Ba/F3^BCR-FMS-11 cell proliferation
# In short: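 Ba/F3 cells stably expressing BCR-FMS, CSF-1R-dependent for growth, seeded at 5000/well in RPMI 1640 with 10% FBS and exposed to 8 compound concentrations for 72 h at 37 °C.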
# [1] = molecular target: Recombinant human CSF1R kinase (Homo sapiens (Human), UniProt P07333); format: biochemical; conditions: Z-LYTE Tyr 1 peptide substrate
# Sequence of Recombinant human CSF1R kinase (P07333 20-972): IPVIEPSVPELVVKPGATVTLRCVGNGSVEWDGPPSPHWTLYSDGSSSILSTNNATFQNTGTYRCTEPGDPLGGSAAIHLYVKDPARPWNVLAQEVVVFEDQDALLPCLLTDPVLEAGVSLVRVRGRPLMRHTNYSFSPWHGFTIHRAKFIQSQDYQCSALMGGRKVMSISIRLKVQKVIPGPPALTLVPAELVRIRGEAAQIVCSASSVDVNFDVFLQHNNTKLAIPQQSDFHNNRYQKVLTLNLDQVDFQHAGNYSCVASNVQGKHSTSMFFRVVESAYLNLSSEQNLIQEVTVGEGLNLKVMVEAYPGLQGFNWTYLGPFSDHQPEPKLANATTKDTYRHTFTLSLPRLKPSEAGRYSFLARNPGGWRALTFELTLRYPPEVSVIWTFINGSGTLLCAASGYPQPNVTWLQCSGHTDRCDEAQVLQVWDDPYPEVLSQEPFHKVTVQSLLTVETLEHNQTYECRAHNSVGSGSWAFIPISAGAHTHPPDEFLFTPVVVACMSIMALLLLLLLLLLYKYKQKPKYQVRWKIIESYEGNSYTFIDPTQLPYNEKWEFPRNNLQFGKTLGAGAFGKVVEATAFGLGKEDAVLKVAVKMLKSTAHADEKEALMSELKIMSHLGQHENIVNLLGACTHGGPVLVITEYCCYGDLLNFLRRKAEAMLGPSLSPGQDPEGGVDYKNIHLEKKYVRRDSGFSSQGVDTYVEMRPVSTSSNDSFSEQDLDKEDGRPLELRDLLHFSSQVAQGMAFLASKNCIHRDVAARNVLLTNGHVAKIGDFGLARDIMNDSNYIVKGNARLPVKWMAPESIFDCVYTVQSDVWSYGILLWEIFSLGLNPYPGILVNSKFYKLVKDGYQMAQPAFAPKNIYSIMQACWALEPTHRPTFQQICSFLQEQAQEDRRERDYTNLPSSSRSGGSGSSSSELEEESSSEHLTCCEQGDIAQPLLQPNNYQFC
# Protocol: Measurement of CSF1R Kinase Activity at Molecular Level
# 1. Reagents and materials:
# • Z-LYTE™ Tyr 1 peptide substrate: Invitrogen, PV3190; • 5× kinase buffer: Invitrogen, PV3189; • 10 mM ATP: Invitrogen, PV3227; • Development reagent B: Invitrogen, PV3295; • Development buffer: Invitrogen, P3127; • Stopping solution: Invitrogen, P3094; • Recombinant human CSF1R kinase: Invitrogen, PR4598A; • 384 well plate, black: Corning, 3575; Envision: Perkin Elmer. 2. Preparation of reaction solutions
# 1) 1.33× kinase buffer: 5× kinase buffer was diluted to a 1.33× kinase buffer with ddH2O.
# 2) Dilution of a 4× test compound: The test compound was diluted in gradient to 4-fold the reaction concentration and the concentration of DMSO was kept at 8%. The final concentration of the compound in reaction was: 1, 0.33, 0.11, 0.037, 0.012, 0.004, 0.0014, 0.00046 μM, and the final concentration of DMSO was 2%.
# 3) A mixture of kinase/peptide substrate: In 1.33× kinase buffer, the kinase and Z-LYTE™ Tyr 1 peptide substrate were diluted to 0.12 μg/mL and 4 μM, respectively, to prepare a mixture of kinase/peptide substrate. The mixture was mixed gently with a pipette.
# 4) A phosphorylated peptide substrate solution (PP solution): 0.4 μL of Z-LYTE™ Tyr1 phosphorylated peptide substrate was added to 99.6 μL of 1.33× kinase buffer.
# 5) ATP solution: 10 mM of ATP was diluted to 760 μM with 1.33× kinase buffer to prepare ATP solution.
# 6) Development solution: Development reagent B was diluted with Development buffer at a ratio of 1:200.
# 1) Kinase reaction (10 μL system)
# 2.5 μL of 4× test compound was added to each reaction well of the 384 plate, and the corresponding volume of 8% DMSO was added to the control well. The plate was placed on ice. 5 μL of a mixture of kinase/peptide substrate, 2.5 μL of kinase buffer and ATP solution were successively added to each well. Three control groups were set up: Group C1 contains only kinase buffer, group C2 contains the mixture of kinase/peptide substrate, kinase buffer and ATP, and group C3 contains 5 μL of PP solution. After adding the reaction components, the 384-well plate was sealed and incubated at 25-30° C. for 1 h in dark.
# 5 μL of Development solution was added to each well, sealed and incubated at 25-30° C. for another 1 h in dark.
# 3) Reaction stopping and plate reading
# 5 μL of stopping solution was added to each well. The Coumarin value (excitation at 400 nm, emission at 445 nm) and Fluorescein value (excitation at 400 nm, emission at 520 nm) were measured, respectively.
# ER (emission ratio): Coumarin emission read-out (445 nm)/Fluorescein emission read-out (520 nm); • C3 445 nm: 100% phosphorylated Coumarin emission read-out; • C3 520 nm: 100% phosphorylated Fluorescein emission read-out; • C1 445 nm: 0% phosphorylated Coumarin emission read-out; • C1 520 nm: 0% phosphorylated Fluorescein emission read-out. Inhibition rate % (IR)=[1−% phosphorylation ratetest sample/100% phosphorylation ratecontrol]×100%
# % phosphorylation ratetest sample: phosphorylation rate of the test compound; • 100% phosphorylation ratecontrol: phosphorylation rate of C3 control group.
# 5. IC50 values: calculated by using software XL-Fit™ (version 5.3) supplied by ID Business Solutions (Guildford, UK), which is an additional software to Microsoft Excel.
# [2] = molecular target: CSF1R phosphorylation in THP-1 cells (Homo sapiens (Human), UniProt P07333); test: Detection of CSF1R phosphorylation activity at cell level (THP-1, M-CSF stimulated, ELISA); format: cell-based; conditions: p-CSF1R ELISA, compound 60 min, 300 ng/mL M-CSF 1 min
# Sequence of CSF1R phosphorylation in THP-1 cells (P07333 20-972): as above
# In short: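 THP-1 cells (5×10^4/well, RPMI 1640, 2% FBS) were pre-treated with compound for 60 min at 37 °C, then stimulated with 300 ng/mL M-CSF for 1 min and lysed. Phospho-CSF1R was read by sandwich ELISA (p-CSF1R capture, anti-phosphotyrosine-HRP detection, OD 450/570 nm). IC50 was fitted with cell-free wells as background.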
Compound,IC50 (Ba/F3^BCR-FMS-11 cells; 72 h) [nM],IC50 [1] [nM],IC50 [2] [nM],IC50 (Ba/F3^BCR-FMS-11 cells; 72 hours) [nM]
"Cc1ncc(C(=O)Nc2ccc(Oc3ccnc(-c4ccn(C)c4)c3)cn2)c(=O)n1C [Compound 117, 1,2-dimethyl-N-(5-((2-(1-methyl-1H-pyrrol-3-yl)pyridin-4-yl)oxy)pyridin-2-yl)-6-oxo-1,6-dihydropyrimidine-5-carboxamide]",9,7,8,–
Cc1cc(C(=O)Nc2ccc(Oc3ccnc(-c4cnn(C)c4)c3)cn2)c(=O)n(C)c1 [Compound 118],6,19,21,–
Cc1nc(-c2cc(Oc3ccc(NC(=O)c4cnc(C)n(C)c4=O)nc3)ccn2)cs1 [Compound 120],39,52,21,–
"Cc1ncc(C(=O)Nc2ccc(Cc3ccnc(-c4cnn(C)c4)c3)cn2)c(=O)n1C [Compound 123, 1,2-dimethyl-N-(5-((2-(1-methyl-1H-pyrazol-4-yl)pyridin-4-yl)methyl)pyridin-2-yl)-6-oxo-1,6-dihydropyrimidine-5-carboxamide]",25,19,16,–
Cc1cc(C(=O)Nc2ccc(Oc3ccnc(-c4ccn(C)c4)c3)cn2)c(=O)n(C)c1 [Compound 124],11,16,19,–
CC(C)n1cccc(C(=O)Nc2ccc(Oc3ccnc(-c4ccn(C)c4)c3)cn2)c1=O [Compound 125],17,7,24,–
CC(C)n1nccc(C(=O)Nc2ccc(Oc3ccnc(-c4ccn(C)c4)c3)cn2)c1=O [Compound 126],28,25,30,–
"[2H]C([2H])([2H])n1c(C)ncc(C(=O)Nc2ccc(Oc3ccnc(-c4cnn(C)c4)c3)cn2)c1=O [Compound 128, 2-methyl-1-(methyl-d3)-N-(5-((2-(1-methyl-1H-pyrazol-4-yl)pyridin-4-yl)oxy)pyridin-2-yl)-6-oxo-1,6-dihydropyrimidine-5-carboxamide]",–,5,6,2
"[2H]C([2H])([2H])n1cc(-c2cc(Oc3ccc(NC(=O)c4cnc(C)n(C)c4=O)nc3)ccn2)cn1 [Compound 129, 1,2-dimethyl-N-(5-((2-(1-(methyl-d3)-1H-pyrazol-4-yl)pyridin-4-yl)oxy)pyridin-2-yl)-6-oxo-1,6-dihydropyrimidine-5-carboxamide]",–,4,7,2
"Cc1ncc(C(=O)Nc2ccc(Oc3ccnc(-c4cn[nH]c4)c3)cn2)c(=O)n1C [Compound 130, N-(5-((2-(1H-pyrazol-4-yl)pyridin-4-yl)oxy)pyridin-2-yl)-1,2-dimethyl-6-oxo-1,6-dihydropyrimidine-5-carboxamide]",15,21,7,–
"Cc1ncc(C(=O)Nc2ccc(Oc3ccnc(-c4cnn(C)c4)c3)cn2)c(=O)[nH]1 [Compound 131, 2-methyl-N-(5-((2-(1-methyl-1H-pyrazol-4-yl)pyridin-4-yl)oxy)pyridin-2-yl)-6-oxo-1,6-dihydropyrimidine-5-carboxamide]",396,76,56,–
"Cn1cc(-c2cc(Oc3ccc(NC(=O)c4cnc(CCO)[nH]c4=O)nc3)ccn2)cn1 [Compound 132, 2-(2-hydroxyethyl)-N-(5-((2-(1-methyl-1H-pyrazol-4-yl)pyridin-4-yl)oxy)pyridin-2-yl)-6-oxo-1,6-dihydropyrimidine-5-carboxamide]",1190,198,2110,–
"Cn1cc(-c2cc(Oc3ccc(NC(=O)c4cnc(CO)[nH]c4=O)nc3)ccn2)cn1 [Compound 133, 2-(hydroxymethyl)-N-(5-((2-(1-methyl-1H-pyrazol-4-yl)pyridin-4-yl)oxy)pyridin-2-yl)-6-oxo-1,6-dihydropyrimidine-5-carboxamide]",> 3300,548,> 3000,–
